Laboratory results taken from patent publication US20260069601A1, “PHARMACEUTICAL COMPOSITION FOR INHALATION FOR PREVENTING OR TREATING RESPIRATORY DISEASE” (LEXENPHARM (SUZHOU) LIMITED, priority 2022, published 2026).

Assay: Stability test of indacaterol maleate-glycopyrronium bromide compositions at different pH (Example 7)
Format: physicochemical
Conditions: 4 weeks at 60° C.
Description: The soft mist solutions of indatarol indacaterol maleate and glycopyrronium bromide at different pH were prepared as follows. Six 0.02 mM citric acid solution each 500 mL were prepared. pH was adjusted to 2.5, 3.0, 3.5, 4.0, 4.5, and 5.0 with 1 M (mol/L) of sodium hydroxide solution. Indacaterol maleate and glycopyrronium bromide were added. In order to improve the dissolution of indacaterol, all the drug solutions were ultrasonicated in a water bath at 30° C. for 20 min until no visible particles were found.
The drug solutions were placed in glass bottles and stability test was performed to determine the contents of indacaterol and glycopyrronium bromide and total impurities in the samples at the initial state and after 4 weeks at 60° C.

SMILES	optimal (best) pH for stability	pH at which the active ingredient is stable
CCc1cc2c(cc1CC)CC(NC[C@H](O)c1ccc(O)c3[nH]c(=O)ccc13)C2 [Indacaterol, indacaterol]	3.5	
C[N+]1(C)CCC(OC(=O)C(O)(c2ccccc2)C2CCCC2)C1 (centres unmarked) [glycopyrronium bromide]		2.5-3.5
